Activity calls are given as the source filed them. No cut-off for these calls is given here.
Assays:
[1] = test system: SARS-CoV-2; experiment: Antiviral activity against SARS-CoV-2 Delta (B.1.617.2) infected in human A549-hACE2-TMPRSS2 cells assessed as fold reduction in viral replication pre-incubated with compound followed by viral infection measured after 48 hrs by ELISA assay relative to SARS-CoV-2 WA1; format: functional, Severe acute respiratory syndrome coronavirus 2
[2] = Prodrug conversion in SARS-CoV-2 infected in African green monkey assessed as (2R,3R,4S,5R)-2-(4-aminopyrrolo[2,1-f][1,2,4]triazin-7-yl)-3,4-dihydroxy-5-(hydroxymethyl)tetrahydrofuran-2-carbonitrile mediated log10 reduction of genomic RNA at 10 mg/kg, iv qd administered for day 1 followed by 5 mg/kg administration measured after 6 days by RT-qPCR analysis; format: ADME, organism-based, Severe acute respiratory syndrome coronavirus 2; conditions: in vivo, time 6 day
[3] = test system: SARS-CoV-2; experiment: Antiviral activity against SARS-CoV-2 Omicron BF.5 infected in human A549-hACE2-TMPRSS2 cells assessed as fold reduction in viral replication pre-incubated with compound followed by viral infection measured after 72 hrs by ELISA assay relative to SARS-CoV-2 WA1; format: functional, Severe acute respiratory syndrome coronavirus 2
[4] = test system: SARS-CoV-2; experiment: Antiviral activity against SARS-CoV-2 Omicron BA.1 infected in human A549-hACE2-TMPRSS2 cells assessed as fold reduction in viral replication pre-incubated with compound followed by viral infection measured after 72 hrs by ELISA assay relative to SARS-CoV-2 WA1; format: functional, Severe acute respiratory syndrome coronavirus 2
[5] = Cytotoxicity against human NHBE-T cells assessed as reduction in cell growth measured after 5 days by CellTiter-Glo assay; format: toxicity, cell-based; conditions: NHBE-T cells, time 5 day
[6] = test system: SARS-CoV-2; experiment: Antiviral activity against SARS-CoV-2 Omicron BA.2.12.1 infected in human A549-hACE2-TMPRSS2 cells assessed as fold reduction in viral replication pre-incubated with compound followed by viral infection measured after 72 hrs by ELISA assay relative to SARS-CoV-2 WA1; format: functional, Severe acute respiratory syndrome coronavirus 2
[7] = test system: SARS-CoV-2; experiment: Antiviral activity against SARS-CoV-2 Omicron BA.2 infected in human A549-hACE2-TMPRSS2 cells assessed as fold reduction in viral replication pre-incubated with compound followed by viral infection measured after 72 hrs by ELISA assay relative to SARS-CoV-2 WA1; format: functional, Severe acute respiratory syndrome coronavirus 2
[8] = test system: SARS-CoV-2; experiment: Antiviral activity against SARS-CoV-2 Omicron BA.5 infected in human A549-hACE2-TMPRSS2 cells assessed as fold reduction in viral replication pre-incubated with compound followed by viral infection measured after 72 hrs by ELISA assay relative to SARS-CoV-2 WA1; format: functional, Severe acute respiratory syndrome coronavirus 2
[9] = test system: SARS-CoV-2; experiment: Antiviral activity against SARS-CoV-2 Omicron BA.2.75 infected in human A549-hACE2-TMPRSS2 cells assessed as fold reduction in viral replication pre-incubated with compound followed by viral infection measured after 72 hrs by ELISA assay relative to SARS-CoV-2 WA1; format: functional, Severe acute respiratory syndrome coronavirus 2
[10] = test system: SARS-CoV-2; experiment: Antiviral activity against SARS-CoV-2 Omicron BA.4 infected in human A549-hACE2-TMPRSS2 cells assessed as fold reduction in viral replication pre-incubated with compound followed by viral infection measured after 72 hrs by ELISA assay relative to SARS-CoV-2 WA1; format: functional, Severe acute respiratory syndrome coronavirus 2
[11] = test system: SARS-CoV-2; experiment: Antiviral activity against SARS-CoV-2 Omicron XBB infected in human A549-hACE2-TMPRSS2 cells assessed as fold reduction in viral replication pre-incubated with compound followed by viral infection measured after 72 hrs by ELISA assay relative to SARS-CoV-2 WA1; format: functional, Severe acute respiratory syndrome coronavirus 2
[12] = in vivo; conditions: dog, po, 5 mg/kg
[13] = Thermodynamic aqueous solubility at pH 2 measured at 72 hrs by UPLC analysis; format: physicochemical; conditions: aqueous solution, read-out: Therm_solubility
[14] = test system: PC-3; experiment: Inhibition of mitochondrial protein synthesis in human PC-3 cells at 100 uM incubated for 5 days; format: functional, cell-based; conditions: time 5.0 day
[15] = test system: PC-3; experiment: Inhibition of mitochondrial respiration in human PC-3 cells at 100 uM incubated for 3 days; format: functional, cell-based; conditions: time 3.0 day
[16] = test system: MRC5; experiment: Cytotoxicity against human MRC5 cells assessed as reduction in cell growth measured after 5 days by CellTiter-Glo assay; format: toxicity, cell-based; conditions: mrc5, 120 h, time 5 day
[17] = AUC(0 to 24 hrs) in African green monkey at 20 mg/kg, iv measured upto 24 hrs by LC-MS/MS analysis; format: ADME, organism-based; set-up: dose 20 mg/kg, time < 24 hrs, route iv; conditions: chlorocebus sabaeus, in vivo
[18] = Drug metabolism in human A549-ACE2 cells assessed as Nucleotide triphosphate metabolite formation at 10 uM measured after 48 hrs by LC-MS analysis; format: ADME, cell-based; conditions: a549-ace2, 48 h
[19] = test system: Huh-7; experiment: Cytotoxicity against human Huh-7 cells assessed as reduction in cell growth measured after 5 days by CellTiter-Glo assay; format: toxicity, cell-based; conditions: huh-7, 120 h, time 5 day
[20] = AUC(0 to 24 hrs) in African green monkey assessed as prodrug conversion by measuring (2R,3R,4S,5R)-2-(4-aminopyrrolo[2,1-f][1,2,4]triazin-7-yl)-3,4-dihydroxy-5-(hydroxymethyl)tetrahydrofuran-2-carbonitrile at 60 mg/kg, po measured upto 24 hrs by LC-MS/MS analysis; format: ADME, organism-based; set-up: time < 24 hrs, dose 60 mg/kg, route po; conditions: chlorocebus sabaeus, in vivo
[21] = Oral bioavailability in African green monkey assessed as prodrug conversion by measuring (2R,3R,4S,5R)-2-(4-aminopyrrolo[2,1-f][1,2,4]triazin-7-yl)-3,4-dihydroxy-5-(hydroxymethyl)tetrahydrofuran-2-carbonitrile at […] measured upto 24 hrs by LC-MS/MS analysis; format: ADME, organism-based; conditions: chlorocebus sabaeus, in vivo
[22] = Oral bioavailability in dog assessed as prodrug conversion by measuring (2R,3R,4S,5R)-2-(4-aminopyrrolo[2,1-f][1,2,4]triazin-7-yl)-3,4-dihydroxy-5-(hydroxymethyl)tetrahydrofuran-2-carbonitrile at […] measured upto 24 hrs by LC-MS/MS analysis; format: ADME, organism-based, Canis lupus familiaris; conditions: in vivo
[23] = test system: SARS-CoV-2; experiment: Antiviral activity against SARS-CoV-2 infected in African green monkey assessed as reduction in viral genomic RNA load in throat swabs at 120 mg/kg, po qd administered for 4 days starting from 8 hrs post infection by RT-qPCR analysis; format: functional, organism-based; conditions: Severe acute respiratory syndrome coronavirus 2, time 4.0 day
[24] = test system: SARS-CoV-2; experiment: Antiviral activity against SARS-CoV-2 infected in African green monkey assessed as reduction in viral load in BALF at 60 to 120 mg/kg, po qd administered for 6 days starting from 8 hrs post infection by PFA assay; format: functional, organism-based; conditions: Severe acute respiratory syndrome coronavirus 2, dose lower 60.0 mg/kg, dose upper […], time 6.0 day
[25] = test system: SARS-CoV-2; experiment: Antiviral activity against SARS-CoV-2 infected in African green monkey assessed as reduction in viral genomic RNA load in terminal respiratory tissue at 60 to 120 mg/kg, po qd administered for 6 days starting from 8 hrs post infection by RT-qPCR analysis; format: functional, organism-based; conditions: Severe acute respiratory syndrome coronavirus 2, dose lower 60.0 mg/kg, dose upper […], time 6.0 day
[26] = test system: CES1c; experiment: Stability of compound assessed as human recombinant CES1c-mediated compound hydrolysis by measuring half life at pH 7.4 using oseltamivir as substrate measured upto 120 mins by LC-MS/MS analysis; format: ADME; conditions: pH 7.4, probe oseltamivir
[27] = AUC(0 to 24 hrs) in African green monkey at 86.5 mg/kg, po measured upto 24 hrs by LC-MS/MS analysis; format: ADME, organism-based; set-up: dose 86.5 mg/kg, time < 24 hrs, route po; conditions: chlorocebus sabaeus, in vivo
[28] = Oral bioavailability in dog assessed as prodrug conversion by measuring (2R,3R,4S,5R)-2-(4-aminopyrrolo[2,1-f][1,2,4]triazin-7-yl)-3,4-dihydroxy-5-(hydroxymethyl)tetrahydrofuran-2-carbonitrile at […] administered in solid form measured upto 24 hrs by LC-MS/MS analysis; format: ADME, organism-based, Canis lupus familiaris; conditions: in vivo

| Structure (SMILES) | fold change (FC) [1] | fold change (FC) [3] | fold change (FC) [4] | CC50 at 120 h [5] [µM] | fold change (FC) [6] | fold change (FC) [7] | fold change (FC) [8] | fold change (FC) [9] | fold change (FC) [10] | fold change (FC) [11] | solubility thermodynamic at 72 h [13] [mg/mL] | inhibition [14] | inhibition [15] | CC50 [16] [µM] | Drug metabolism [18] | CC50 [19] [µM] | further results |
| --- | --- | --- | --- | --- | --- | --- | --- | --- | --- | --- | --- | --- | --- | --- | --- | --- | --- |
| CCC(CC)COC(=O)[C@H](C)N[P@](=O)(OC[C@H]1O[C@@](C#N)(c2ccc3c(N)ncnn23)[C@H](O)[C@@H]1O)Oc1ccccc1 | 0.59 | 0.94 | 0.45 | > 50 | 0.2 | 0.23 | 0.66 | 0.3 | 0.15 | 1.07 |  |  |  |  |  |  | log(activity) [2]: -1.38 |
| N#C[C@@]1(c2ccc3c(N)ncnn23)O[C@H](CO)[C@@H](O)[C@H]1O [GS-441524] |  |  |  |  |  |  |  |  |  |  | ≤ 1 | inactive | inactive | > 89 | Metabolite_Detected | > 89 | bioavailability at 24 h [12]: 89%; AUC [17]: 147 µM·h |
| CC(C)C(=O)OC[C@H]1O[C@@](C#N)(c2ccc3c(N)ncnn23)[C@H](O)[C@@H]1O [OBELDESIVIR] | 0.72 | 0.8 | 0.32 | > 50 | 0.29 | 0.37 | 0.83 | 0.35 | 0.26 | 1.1 | ≥ 40 | inactive | inactive | > 44 | Metabolite_Detected | > 44 | AUC [20]: 129 µM·h; F [21]: 31%; F [22]: 93%; Activity [23]: Active; Activity [24]: Active; Activity [25]: Active; half-life [26]: 4.3 min; AUC [27]: 0.68 µM·h; F [28]: 67% |

From ChEMBL document CHEMBL5321279 (J Med Chem, 2023)
